The values that follow come from US20240350460A1, “APPLICATION OF HYDRAZIDE COMPOUND IN TUMOR TREATMENT” (NANJING SHIJIANG MEDICINE TECHNOLOGY CO., LTD, priority 2021, published 2024).

The term IC50 denotes the point on the concentration scale where inhibition reaches its midpoint. Read a high IC50 as a need for much substance.

Common to all, as to type: cell-based
Experiment [1] relates to SF126. The experiment can be described thus: Cell viability (Promega CellTiter-Glo), inhibitory effect on tumor cell line. The conditions noted are these: SF-126; SF126, human glioblastoma multiforme cell; insensitive group; 3-4 days of culture; n=3. As to the method: Cell viability was detected using the Promega CellTiter-Glo kit, cell viability was determined by directly measuring intracellular ATP content. […] The name, source and culture conditions of each tumor cell line were as follows: Cell line SF126 (JCRB, No. IFO50286) was cultured in 10% fetal bovine serum-containing EMEM medium (+P/S).
In general terms: In ATP-based viability assays light output follows the ATP content of the culture.

Experiment [2] has as its system CFPAC-1. The experiment is described as above. The conditions noted are these: CFPAC-1, human pancreatic cancer cell; insensitive group; 3-4 days of culture; n=3. Here is the method: Cell viability was detected using the Promega CellTiter-Glo kit, cell viability was determined by directly measuring intracellular ATP content. […] The name, source and culture conditions of each tumor cell line were as follows: Cell line CFPAC-1 (ATCC, No. CRL-1918) was cultured in 10% fetal bovine serum-containing IMDM medium (+P/S).

Experiment [3] relates to NCI-H82. The description is as above. The settings on record: NCI-H82, human small cell lung cancer cell; sensitive group; 3-4 days of culture; n=3. As to the method: Cell viability was detected using the Promega CellTiter-Glo kit, cell viability was determined by directly measuring intracellular ATP content. […] The name, source and culture conditions of each tumor cell line were as follows: […] HTB-175) was cultured in 10% fetal bovine serum-containing RPMI1640 medium (+P/S).

For experiment [4], the system named is GB-1. Described as above. The settings on record: GB-1, human glioblastoma cell; insensitive group; 3-4 days of culture; n=3.
The subject of experiment [5] is NNMT protein-overexpressing NCI-H82 cell (NCI-H82 (ov-NNMT)). Description: Cell viability (Promega CellTiter-Glo) on NNMT protein-overexpressing NCI-H82 cell. The conditions noted are these: Homo sapiens; NCI-H82 overexpressing NNMT protein (NNMT gene inserted by viral vector); n=3. The text has this:
(§1) The NNMT protein-overexpressing NCI-H82 cell (NCI-H82 (ov-NNMT)) was obtained by inserting the NNMT gene into NCI-H82 cell using a viral vector. The control NCI-H82 cell (NCI-H82 (Con)) was obtained by transfecting NCI-H82 cell with empty virus vector without carrying NNMT gene.
(§2) The expressing level of NNMT protein in control NCI-H82 cell (NCI-H82 (Con)) and NNMT protein-overexpressing NCI-H82 cell (NCI-H82 (ov-NNMT)) was detected using Western Blot assay (as shown in FIG. 7), it could be seen from FIG. 7 that the NNMT protein in NCI-H82 (ov-NNMT) cell was overexpressed compared with the expression level of NNMT protein in NCI-H82 (Con) cell.

Experiment [6] relates to WSU-DLCL2. Description: Cell viability (Promega CellTiter-Glo), inhibitory effect on tumor cell line. The conditions noted are these: WSUDLCL2; WSU-DLCL2, human diffuse large B-cell lymphoma; sensitive group; 3-4 days of culture; n=3. As to the method:
Cell viability was detected using the Promega CellTiter-Glo kit, cell viability was determined by directly measuring intracellular ATP content. […] The name, source and culture conditions of each tumor cell line were as follows: Cell line WSU-DLCL2 (DSMZ, No. ACC-575) was cultured in 10% fetal bovine serum-containing RPMI1640 medium (+P/S).

Experiment [7] concerns SW48. Described as above. The settings on record: SW48, human colon adenocarcinoma cell; sensitive group; 3-4 days of culture; n=3. Here is the method: Cell viability was detected using the Promega CellTiter-Glo kit, cell viability was determined by directly measuring intracellular ATP content. […] The name, source and culture conditions of each tumor cell line were as follows: Cell line SW48 (ATCC, No. CCL-231) was cultured in 10% fetal bovine serum-containing Leibovitz's L-15 medium (+P/S).

In experiment [8] the test system is control NCI-H82 cell (NCI-H82 (Con)). Description: Cell viability (Promega CellTiter-Glo) on control NCI-H82 cell. The conditions noted are these: Homo sapiens; NCI-H82 transfected with empty virus vector without NNMT gene; n=3.
From the text: as §1, §2

The test system of experiment [9] is MDA-MB-453. The experiment can be described thus: Cell viability (Promega CellTiter-Glo), inhibitory effect on tumor cell line. The conditions noted are these: Homo sapiens; MDA-MB-453, breast cancer cell; sensitive group; 3-4 days of culture; n=3. Here is the method:
Cell viability was detected using the Promega CellTiter-Glo kit, cell viability was determined by directly measuring intracellular ATP content. […] The name, source and culture conditions of each tumor cell line were as follows: Cell line MDA-MB-453 (ATCC, No. HTB-131) was cultured in 10% fetal bovine serum-containing Leibovitz's L-15 medium (+P/S).

In experiment [10] the test system is G-401. Described as above. The settings on record: G-401, human renal carcinoma Wilms cell; sensitive group; 3-4 days of culture; n=3. Here is the method:
Cell viability was detected using the Promega CellTiter-Glo kit, cell viability was determined by directly measuring intracellular ATP content. […] The name, source and culture conditions of each tumor cell line were as follows: Cell line G-401 (ATCC, No. CRL-1441) was cultured in 10% fetal bovine serum-containing McCoy's 5a medium (+P/S).

The subject of experiment [11] is 786-O. Described as above. The conditions noted are these: Homo sapiens, 786-0, clear cell renal cell adenocarcinoma cell, insensitive group, 3-4 days of culture, n=3. Here is the method: Cell viability was detected using the Promega CellTiter-Glo kit, cell viability was determined by directly measuring intracellular ATP content. […] The name, source and culture conditions of each tumor cell line were as follows: Cell line 786-O (ATCC, No. CRL-1932) was cultured in 10% fetal bovine serum-containing RPMI1640 medium (+P/S).

In the case of `O=C1OCCN1/N=C/c1ccc([N+](=O)[O-])o1` [Furazolidone, furazolidone], the IC50 in [1] was more than 50 µM; in experiment [2], more than 50 µM; in [3], 8.31 µM; in experiment [4] it was 38.4 µM; in experiment [5], 18.5 µM; in [6] it was 9.04 µM. The IC50 in [7] worked out at 8.23 µM; in experiment [8] it was 8.22 µM; in [9], 7.73 µM; in experiment [10], 5.77 µM.
On to `O=C(N/N=C/c1ccc([N+](=O)[O-])o1)c1ccc(O)cc1` [Nifuroxazide, nifuroxazide], for which the IC50 in experiment [11] was more than 50 µM; in experiment [1], 16.4 µM; in experiment [2], more than 50 µM; in experiment [3] it was 2.48 µM; in [4], 20 µM; in experiment [5], 5.01 µM. The IC50 in experiment [6] amounted to 4.22 µM; in experiment [7], 4.05 µM; in experiment [8], 2.41 µM; in [9], 2.78 µM; in experiment [10], 3.22 µM.
